Test results reported in patent publication US20230131993A1 (priority 2020, published 2023).
Where two headings read alike, the source gives them in different places.

What was measured:
[1] = Oxipres accelerated stability test of DragoCalm: Avenanthramide C content by HPLC before and after treatment; details: for degradation inhibitory activity, ranking of single stabilizers: as demonstrated by the examples; for Degradation (%) of Avenanthramide C: DragoCalm, Oxipres 5 bars oxygen, 24 hours, 70° C.
Description: The oxidative stability of the glycerol/water-based solution of an DragoCalm® extract as described below with different stabilizer was evaluated against a glycerol/water-based solution of an oat extract without stabilizer.
The Oxipres device allows the determination of oxidative resistance (shelf life) of oils. The device is a modification of the bomb method according to ASTM D941, which is based on oxidation with oxygen. The test runs under elevated pressure and temperature, through which the degradation process is accelerated. During the test, the consumption of oxygen results in a pressure drop in the vessel. Decrease of pressure indicates more consumption of oxygen and higher oxidation of the test product.
Thus, it is an accelerated stability test due to harder conditions such as temperature and pressure.
(§1) Stabilizers were presolved in DragoCalm® under stirring at room temperature or, if necessary at a temperature from 40 to 50° C. […] The DragoCalm® samples (15 g) were placed into the reaction vessel and were either exposed to 5 bars of oxygen for 24 hours at 70° C. using the Oxipres device.
(§2) The evaluation of the samples, i.e. the determination of content of Avns was determined by HPLC (comparison before and after Oxipres treatment).
The content of Avenanthramide C was determined by HPLC before and after Oxipres treatment.

[2] = Color stability of DragoCalm before and after Oxipres treatment (L*a*b* system, Δb*); assay type: physicochemical; set-up: key: L*a*b* Δb* = b* change before vs after Oxipres; higher = more discolored; details: color difference before/after Oxipres treatment
Description: (i.e. hydroxyacetophenone).
Furthermore, the color of the DragoCalm® samples was measured before and after the Oxipres treatment by using the L*a*b* system (Lico 690). The b* value describes the discoloration in the yellowish/red/brownish area, the Δ b* value describes the difference of color before and after Oxipres treatment. The higher the Δ b* value the more discolorated is the test solution.

[3] = Oxipres stability test of DragoCalm: Avenanthramide L; details: before and after Oxipres treatment
Description: as §1, §2
(§3) The test procedure and the evaluation of the samples were carried out in the same manner as described above for Avenanthramide C.

[4] = during storage; cited from earlier work
[5] = 24 h, 0.1 %
Description: as §1, §2, §3

[6] = Oxipres stability test of DragoCalm: Avenanthramide B; details: before and after Oxipres treatment, additive 0.1 %
Description: as §1, §2, §3

[7] = tested on: mast cell; details: through the interaction with the neurokinin-1 receptor; cited from earlier work
[8] = in DragoCalm after Oxipres treatment (5 bars oxygen, 24 hours, 70° C.), additive 0.10 %
[9] = in DragoCalm before Oxipres treatment, additive 0.10 %
[10] = in DragoCalm after Oxipres treatment (5 bars oxygen, 24 hours, 70° C.), additive 0.05 %
[11] = in DragoCalm before Oxipres treatment, additive 0.05 %

Row | Compound | Avenanthramide C End (ppm) [1, 8] | Avenanthramide C Start (ppm) [1, 9] | Δb* ([2]; additive 0.10 %) | other results
1 | CC(O)C(=O)O (stereo not shown) [Lactic acid] | 1 ppm | 12 ppm | 8.4 | 
2 | O=C([O-])CN(CCN(CC(=O)[O-])CC(=O)O)CC(=O)O.[Na+].[Na+] [Disodium EDTA] |  |  | 5.0 | Avenanthramide C End (ppm) [1]: 9 ppm; Avenanthramide C Start (ppm) [1]: 16 ppm
3 | CC(C(=O)[O-])N(CC(=O)[O-])CC(=O)[O-].[Na+].[Na+].[Na+] (stereo not shown) [Trisodium MGDA, trisodium methylglycinediacetic acid] |  |  |  | Degradation of Avenanthramide L (%) ([3]; additive 0.2 %): 20.0%
4 | O=C(O)CC(O)(CC(=O)O)C(=O)O [Citric acid] | 1 ppm | 18 ppm | 8.2 | Avenanthramide C End (ppm) [1, 10]: 1 ppm; Avenanthramide C Start (ppm) [1, 11]: 26 ppm; Δb* ([2]; additive 0.05 %): 6.5
5 | O=C(C=Cc1ccc(O)c(O)c1)Nc1ccc(O)cc1C(=O)O [Avenanthramide C, N-(3′-4′-dihydroxycinnamoyl)-5-hydroxyanthranilic acid] |  |  |  | stability (known, words) [4]: low stability
6 | O=C([O-])CC[C@@H](C(=O)[O-])N(CC(=O)[O-])CC(=O)[O-].[Na+].[Na+].[Na+].[Na+] [Tetrasodium Glutamate Diacetate] | 1 ppm | 13 ppm | 7.8 | 
7 | O=C(O)CC(O)C(=O)O (stereo not shown) [Malic acid] | 1 ppm | 11 ppm | 8.3 | degradation inhibitory activity, ranking of single stabilizers [1]: most single effective alpha hydroxy acids
8 | O=P(O)(O)O[C@H]1[C@H](OP(=O)(O)O)[C@@H](OP(=O)(O)O)[C@H](OP(=O)(O)O)[C@@H](OP(=O)(O)O)[C@H]1OP(=O)(O)O [Phytic Acid] | 2 ppm | 14 ppm | 8.2 | Degradation of Avenanthramide L (%) [5]: 20.0%
9 | CC(=O)c1ccc(O)cc1 [4-Hydroxyacetophenone] | 1 ppm | 18 ppm | 7.3 | Degradation (%) of Avenanthramide C ([1]; additive 0.10 %): 94.4%; Degradation of Avenanthramide B (%) [6]: 18.5%
10 | O=C(O)C(O)C(O)C(=O)O (stereo not shown) [Tartaric acid] | 1 ppm | 11 ppm | 9.4 | degradation inhibitory activity, ranking of single stabilizers [1]: most single effective alpha hydroxy acids
11 | Trisodium Ethylenediamine Disuccinate | 3 ppm | 9 ppm | 7.0 | Degradation (%) of Avenanthramide C ([1]; additive 0.10 %): 66.7%; Degradation of Avenanthramide B (%) [6]: 7.4%; Degradation of Avenanthramide L (%) ([3]; additive 0.10 %): 0%
12 | O=C1O[C@H]([C@@H](O)CO)C(O)=C1O [Ascorbic acid] |  |  |  | degradation inhibitory activity, ranking of single stabilizers [1]: most effective single antioxidant; Avenanthramide C End (ppm) [1, 10]: 3 ppm; Avenanthramide C Start (ppm) [1, 11]: 16 ppm; Δb* ([2]; additive 0.05 %): 8.2
13 | O=C(CCc1ccc(O)cc1)Nc1ccccc1C(=O)O [Dihydroavenanthramide D, 2-{[3-(4-Hydroxyphenyl)propanoyl]amino}benzoic acid] |  |  |  | mast cell degranulation [7]: inhibits mast cell degranulation; stability (known, words) [4]: more stable in comparison to Avenanthramide C
